Measurements from ChEMBL document CHEMBL3885881, “DrugMatrix”.

Species: Rattus norvegicus
Test: DrugMatrix - Regimen: Daily Repeat
Format: toxicity, organism-based, Sprague-Dawley
Design: regimen Daily Repeat, gender Male, age 6-8 weeks
Conditions: in vivo, po, route oral GAVAGE, […]; for POTASSIUM / SODIUM / TOTAL BILIRUBIN / TOTAL PROTEIN / URIC ACID / ALANINE AMINOTRANSFERASE / ALBUMIN / ALKALINE PHOSPHATASE / ASPARTATE AMINOTRANSFERASE / BLOOD UREA NITROGEN / CARBON DIOXIDE / CHLORIDE / CHOLESTEROL / CREATINE PHOSPHOKINASE / CREATININE / GLUCOSE / LACTATE DEHYDROGENASE / LIPASE / PHOSPHORUS: tissue Plasma; for ABSOLUTE BASOPHIL / ABSOLUTE EOSINOPHIL / ABSOLUTE LYMPHOCYTE / ABSOLUTE MONOCYTE / ABSOLUTE SEGMENTED NEUTROPHIL / BASOPHIL / EOSINOPHIL / ERYTHROCYTE COUNT / HEMATOCRIT / HEMOGLOBIN / LEUKOCYTE COUNT / LYMPHOCYTE / MEAN CORPUSCULAR HEMOGLOBIN / MEAN CORPUSCULAR HEMOGLOBIN CONCENTRATION / MEAN CORPUSCULAR VOLUME / MONOCYTE / NEUTROPHIL / NUCLEATED RED BLOOD CELLS / PLATELET COUNT: tissue Blood
[1] = 9 mg/kg, 72 h, dose level M1, time 3 day
[2] = 9 mg/kg, 120 h, dose level M1, time 5 day
[3] = 36 mg/kg, 72 h, dose level High, time 3 day
[4] = 36 mg/kg, 120 h, dose level High, time 5 day

Structure (SMILES): CS(=O)(=O)OCCCCOS(C)(=O)=O [BUSULFAN]
- POTASSIUM [1]: 6.13 MEQ/L
- SODIUM [1]: 143.63 MEQ/L
- TOTAL BILIRUBIN [1]: 0.13 mg/dL
- TOTAL PROTEIN [1]: 5.73 G/DL
- URIC ACID [1]: 1.27 mg/dL
- ABSOLUTE BASOPHIL [2]: 0 CELLS/uL
- ABSOLUTE EOSINOPHIL [2]: 0 CELLS/uL
- ABSOLUTE LYMPHOCYTE [2]: 6323.33 CELLS/uL
- ABSOLUTE MONOCYTE [2]: 60 CELLS/uL
- ABSOLUTE SEGMENTED NEUTROPHIL [2]: 150 CELLS/uL
- BASOPHIL [2]: 0%
- EOSINOPHIL [2]: 0%
- ERYTHROCYTE COUNT [2]: 6.03 x10E6/uL
- HEMATOCRIT [2]: 36.67%
- HEMOGLOBIN [2]: 14.47 G/DL
- LEUKOCYTE COUNT [2]: 6.53 x10E3/uL
- LYMPHOCYTE [2]: 97%
- MEAN CORPUSCULAR HEMOGLOBIN [2]: 24.03 pg
- MEAN CORPUSCULAR HEMOGLOBIN CONCENTRATION [2]: 39.43 G/DL
- MEAN CORPUSCULAR VOLUME [2]: 60.83 fL
- MONOCYTE [2]: 0.67%
- NEUTROPHIL [2]: 2.33%
- NUCLEATED RED BLOOD CELLS [2]: 0 /100WBC
- PLATELET COUNT [2]: 1101.33 x10E3/uL
- ALANINE AMINOTRANSFERASE [2]: 48.67 u/L
- ALBUMIN [2]: 4.4 G/DL
- ALKALINE PHOSPHATASE [2]: 322 u/L
- ASPARTATE AMINOTRANSFERASE [2]: 84.67 u/L
- BLOOD UREA NITROGEN [2]: 8.33 mg/dL
- CARBON DIOXIDE [2]: 33 mmol/L
- CHLORIDE [2]: 99.33 MEQ/L
- CHOLESTEROL [2]: 81.67 mg/dL
- CREATINE PHOSPHOKINASE [2]: 189.67 u/L
- CREATININE [2]: 0.3 mg/dL
- GLUCOSE [2]: 133.33 mg/dL
- LACTATE DEHYDROGENASE [2]: 120 u/L
- LIPASE [2]: 11.33 u/L
- PHOSPHORUS [2]: 9.3 mg/dL
- POTASSIUM [2]: 6.08 MEQ/L
- SODIUM [2]: 145.27 MEQ/L
- TOTAL BILIRUBIN [2]: 0.13 mg/dL
- TOTAL PROTEIN [2]: 6.33 G/DL
- URIC ACID [2]: 0.77 mg/dL
- ABSOLUTE BASOPHIL [3]: 0 CELLS/uL
- ABSOLUTE EOSINOPHIL [3]: 0 CELLS/uL
- ABSOLUTE LYMPHOCYTE [3]: 7116 CELLS/uL
- ABSOLUTE MONOCYTE [3]: 0 CELLS/uL
- ABSOLUTE SEGMENTED NEUTROPHIL [3]: 417.33 CELLS/uL
- BASOPHIL [3]: 0%
- EOSINOPHIL [3]: 0%
- ERYTHROCYTE COUNT [3]: 5.94 x10E6/uL
- HEMATOCRIT [3]: 37.13%
- HEMOGLOBIN [3]: 14.47 G/DL
- LEUKOCYTE COUNT [3]: 7.53 x10E3/uL
- LYMPHOCYTE [3]: 94.33%
- MEAN CORPUSCULAR HEMOGLOBIN [3]: 24.5 pg
- MEAN CORPUSCULAR HEMOGLOBIN CONCENTRATION [3]: 39.07 G/DL
- MEAN CORPUSCULAR VOLUME [3]: 62.67 fL
- MONOCYTE [3]: 0%
- NEUTROPHIL [3]: 5.67%
- NUCLEATED RED BLOOD CELLS [3]: 0 /100WBC
- PLATELET COUNT [3]: 1000.33 x10E3/uL
- ALANINE AMINOTRANSFERASE [3]: 45.33 u/L
- ALBUMIN [3]: 4.4 G/DL
- ALKALINE PHOSPHATASE [3]: 316.33 u/L
- ASPARTATE AMINOTRANSFERASE [3]: 72.67 u/L
- BLOOD UREA NITROGEN [3]: 12 mg/dL
- CARBON DIOXIDE [3]: 33.33 mmol/L
- CHLORIDE [3]: 101.5 MEQ/L
- CHOLESTEROL [3]: 110.33 mg/dL
- CREATINE PHOSPHOKINASE [3]: 312.33 u/L
- CREATININE [3]: 0.1 mg/dL
- GLUCOSE [3]: 170.33 mg/dL
- LACTATE DEHYDROGENASE [3]: 86.33 u/L
- LIPASE [3]: 12.33 u/L
- PHOSPHORUS [3]: 10.73 mg/dL
- POTASSIUM [3]: 5.47 MEQ/L
- SODIUM [3]: 147.05 MEQ/L
- TOTAL BILIRUBIN [3]: 0.17 mg/dL
- TOTAL PROTEIN [3]: 6.3 G/DL
- URIC ACID [3]: 0.6 mg/dL
- ABSOLUTE BASOPHIL [4]: 0 CELLS/uL
- ABSOLUTE EOSINOPHIL [4]: 0 CELLS/uL
- ABSOLUTE LYMPHOCYTE [4]: 3639 CELLS/uL
- ABSOLUTE MONOCYTE [4]: 0 CELLS/uL
- ABSOLUTE SEGMENTED NEUTROPHIL [4]: 61 CELLS/uL
- BASOPHIL [4]: 0%
- EOSINOPHIL [4]: 0%
- ERYTHROCYTE COUNT [4]: 6.14 x10E6/uL
- HEMATOCRIT [4]: 38.4%
- HEMOGLOBIN [4]: 14.8 G/DL
- LEUKOCYTE COUNT [4]: 3.7 x10E3/uL
- LYMPHOCYTE [4]: 98.5%
- MEAN CORPUSCULAR HEMOGLOBIN [4]: 24.15 pg
- MEAN CORPUSCULAR HEMOGLOBIN CONCENTRATION [4]: 38.6 G/DL
- MEAN CORPUSCULAR VOLUME [4]: 62.55 fL
- MONOCYTE [4]: 0%
- NEUTROPHIL [4]: 1.5%
- NUCLEATED RED BLOOD CELLS [4]: 0 /100WBC
- PLATELET COUNT [4]: 1040 x10E3/uL
- ALANINE AMINOTRANSFERASE [4]: 36.5 u/L
- ALBUMIN [4]: 4.35 G/DL
- ALKALINE PHOSPHATASE [4]: 322.5 u/L
- ASPARTATE AMINOTRANSFERASE [4]: 72 u/L
- BLOOD UREA NITROGEN [4]: 7 mg/dL
- CARBON DIOXIDE [4]: 28 mmol/L
- CHLORIDE [4]: 100 MEQ/L
- CHOLESTEROL [4]: 78 mg/dL
- CREATINE PHOSPHOKINASE [4]: 216 u/L
- CREATININE [4]: 0.13 mg/dL
- GLUCOSE [4]: 154 mg/dL
- LACTATE DEHYDROGENASE [4]: 72 u/L
- LIPASE [4]: 10.5 u/L
- PHOSPHORUS [4]: 9.25 mg/dL
- POTASSIUM [4]: 5.75 MEQ/L
- SODIUM [4]: 145.2 MEQ/L
- TOTAL BILIRUBIN [4]: 0.1 mg/dL
- TOTAL PROTEIN [4]: 6.35 G/DL
- URIC ACID [4]: 0.5 mg/dL
